The numbers were not newly measured in patent US20230218693A1, “HEMP SPROUT PRODUCTS AND METHODS FOR PRODUCING SAME” (priority 2020, published 2023), which cites them from elsewhere.

Where two headings read alike, the source gives them in different places.

In data set [1] the target is T1, COX-2 (Homo sapiens, UniProt P35354).
T1 sequence (P35354 18-604): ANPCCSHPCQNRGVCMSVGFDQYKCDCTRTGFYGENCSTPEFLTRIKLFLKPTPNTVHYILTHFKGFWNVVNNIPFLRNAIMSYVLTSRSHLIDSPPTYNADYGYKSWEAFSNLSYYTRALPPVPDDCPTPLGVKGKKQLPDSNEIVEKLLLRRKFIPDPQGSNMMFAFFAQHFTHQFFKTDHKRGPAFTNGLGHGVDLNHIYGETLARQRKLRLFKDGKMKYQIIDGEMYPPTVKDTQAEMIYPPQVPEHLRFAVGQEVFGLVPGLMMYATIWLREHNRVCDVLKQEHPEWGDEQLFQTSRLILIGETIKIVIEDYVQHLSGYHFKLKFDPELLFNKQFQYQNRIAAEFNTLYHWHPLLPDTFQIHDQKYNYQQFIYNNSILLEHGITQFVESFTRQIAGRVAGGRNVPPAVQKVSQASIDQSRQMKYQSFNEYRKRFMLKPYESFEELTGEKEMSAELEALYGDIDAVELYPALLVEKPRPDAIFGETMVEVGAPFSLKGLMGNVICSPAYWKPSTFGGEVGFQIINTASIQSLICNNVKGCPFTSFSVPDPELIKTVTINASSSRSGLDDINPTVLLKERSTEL

For data set [2], the target named is T2, 5-LO (Homo sapiens, UniProt P09917).
T2 sequence (P09917 1-674): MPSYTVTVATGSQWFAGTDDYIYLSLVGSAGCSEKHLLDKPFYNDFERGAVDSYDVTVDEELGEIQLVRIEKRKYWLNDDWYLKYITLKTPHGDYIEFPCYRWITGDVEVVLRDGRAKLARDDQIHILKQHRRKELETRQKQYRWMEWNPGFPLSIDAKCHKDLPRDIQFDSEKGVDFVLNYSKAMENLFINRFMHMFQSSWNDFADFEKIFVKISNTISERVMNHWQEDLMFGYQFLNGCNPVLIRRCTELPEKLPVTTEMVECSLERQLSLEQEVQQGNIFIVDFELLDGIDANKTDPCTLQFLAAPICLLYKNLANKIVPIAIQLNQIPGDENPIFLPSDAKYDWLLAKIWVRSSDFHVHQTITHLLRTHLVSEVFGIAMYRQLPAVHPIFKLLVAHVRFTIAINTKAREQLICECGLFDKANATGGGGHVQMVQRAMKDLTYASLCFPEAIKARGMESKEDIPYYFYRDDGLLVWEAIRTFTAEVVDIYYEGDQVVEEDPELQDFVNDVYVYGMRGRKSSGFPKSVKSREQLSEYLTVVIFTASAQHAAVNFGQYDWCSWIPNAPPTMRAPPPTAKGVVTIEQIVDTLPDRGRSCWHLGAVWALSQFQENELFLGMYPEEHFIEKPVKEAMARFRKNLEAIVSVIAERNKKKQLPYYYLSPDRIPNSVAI
The arrangement: endogenous in cells; host or cells: freshly isolated human neutrophils (PMNL). The conditions noted are these: PMNL.

The target of data set [3] is T3, COX-1 (Homo sapiens, UniProt P23219).
T3 construct: endogenous in cells; host or cells: freshly isolated human blood cells (platelets, according to the assay name)
T3 sequence (P23219 24-599): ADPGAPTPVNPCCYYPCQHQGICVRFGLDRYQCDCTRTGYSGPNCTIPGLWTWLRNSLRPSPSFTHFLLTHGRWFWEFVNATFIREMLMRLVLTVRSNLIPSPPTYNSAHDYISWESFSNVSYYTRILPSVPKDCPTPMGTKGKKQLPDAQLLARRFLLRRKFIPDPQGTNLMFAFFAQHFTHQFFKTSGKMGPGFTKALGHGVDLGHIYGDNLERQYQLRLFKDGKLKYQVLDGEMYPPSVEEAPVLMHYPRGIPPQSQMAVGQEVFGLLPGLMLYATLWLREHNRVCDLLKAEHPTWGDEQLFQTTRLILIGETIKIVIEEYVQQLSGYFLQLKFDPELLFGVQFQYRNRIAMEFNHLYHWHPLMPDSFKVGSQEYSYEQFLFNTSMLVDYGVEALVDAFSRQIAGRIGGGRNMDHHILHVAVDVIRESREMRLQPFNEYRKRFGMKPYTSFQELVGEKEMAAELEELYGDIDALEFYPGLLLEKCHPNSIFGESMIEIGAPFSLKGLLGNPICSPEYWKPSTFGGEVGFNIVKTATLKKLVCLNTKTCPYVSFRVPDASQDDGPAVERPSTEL
The conditions noted are these: COX-1, platelets.

For data set [4], the target named is T2, 5-LO. The arrangement: endogenous in cells; host or cells: freshly isolated human neutrophils (PMNL). The settings on record: PMNL, A23187 + AA.
The target in another data set is T4, cPLA2 (Homo sapiens, UniProt P47712).
T4 sequence (P47712 1-749): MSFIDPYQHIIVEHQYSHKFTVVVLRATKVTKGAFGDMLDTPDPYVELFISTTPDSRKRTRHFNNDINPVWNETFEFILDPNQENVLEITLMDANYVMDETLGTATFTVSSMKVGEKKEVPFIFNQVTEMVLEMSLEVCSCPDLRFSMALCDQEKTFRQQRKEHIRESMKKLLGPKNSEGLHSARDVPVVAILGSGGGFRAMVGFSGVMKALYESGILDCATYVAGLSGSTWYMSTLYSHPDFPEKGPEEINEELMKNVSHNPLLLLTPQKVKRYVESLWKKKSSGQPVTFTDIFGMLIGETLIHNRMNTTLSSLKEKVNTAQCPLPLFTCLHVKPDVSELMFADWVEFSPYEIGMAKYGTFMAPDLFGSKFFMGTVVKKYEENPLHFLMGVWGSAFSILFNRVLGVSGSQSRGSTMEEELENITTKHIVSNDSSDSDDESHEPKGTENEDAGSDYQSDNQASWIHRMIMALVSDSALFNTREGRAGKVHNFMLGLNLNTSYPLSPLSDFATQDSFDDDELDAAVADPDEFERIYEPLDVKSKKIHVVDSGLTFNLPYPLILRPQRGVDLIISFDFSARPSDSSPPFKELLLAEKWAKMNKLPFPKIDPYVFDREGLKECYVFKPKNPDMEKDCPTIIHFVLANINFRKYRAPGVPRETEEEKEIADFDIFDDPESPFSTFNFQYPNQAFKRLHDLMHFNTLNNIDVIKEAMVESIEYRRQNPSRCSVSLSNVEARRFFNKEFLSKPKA
The settings on record: cPLA2, cell-free.

Data set [5] has as its target T2, 5-LO. The settings on record: 5-LO cell-free.
Another data set has as its system PGE2. The settings on record: result in words.
The target of another data set is T5, mPGES-1 (Homo sapiens, UniProt O14684).
T5 sequence (O14684 1-152): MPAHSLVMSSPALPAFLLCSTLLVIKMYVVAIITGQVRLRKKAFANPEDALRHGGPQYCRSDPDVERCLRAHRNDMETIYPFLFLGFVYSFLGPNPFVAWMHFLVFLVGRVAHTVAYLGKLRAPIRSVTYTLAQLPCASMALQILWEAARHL

In data set [6] the test system is freshly isolated human blood cells. The conditions noted are these: for Effect on cell viability: human cells.
For data set [7], the target named is T1, COX-2. Details: endogenous in cells; host or cells: freshly isolated human monocytes. The settings on record: COX-2, monocytes.
The subject of data set [8] is COX-1.
For data set [9] the following is noted: result in words.
The conditions of data set [10]: result in words. This is another data set of the same source.
For data set [11], the system named is HepG2 human hepatic carcinoma cells. The settings on record: dose-dependently up to 500 μM.

Turning to `COc1cc(-c2cc(=O)c3c(O)c(C/C=C(\C)CCC=C(C)C)c(O)cc3o2)ccc1O` [CFA, Cannflavin A], the “Effect in DPPH assay (antioxidant activity)” value was “No effect”. Also, the % inhibition – broadly, the relative decrease from the control value, in per cent – at 10 μM at COX-2 [1] (COX-2, cell-free, 10 μM) is 35 ± 12%. Also, on COX-2 [1] (COX-2, cell-free, read-out: CFA(1) IC50), the IC50 – broadly, the midpoint of a concentration-inhibition curve – is greater than 10 µM. Further, on COX-2 [1] (result in words), the “Inhibition of COX-2” value is recorded as “did not significantly inhibit COX-2”. Further, the “% inhibition at 10 μM” value on 5-LO [2] (A23187, 10 μM) is reported as 98 ± 2%. Further, the IC50 on 5-LO [2] (A23187, read-out: CFA(1) IC50) was 2.4 µM. Moreover, where the note is “listed as cannflavin A”, the “Effect in DPPH assay (antioxidant activity)” value is recorded as “did not demonstrate innate antioxidant activity”. Further, on COX-1 [3] (10 μM, vs vehicle (0.1% DMSO)), the “% inhibition at 10 μM” value is 26 ± 2%. The IC50 on COX-1 [3] (added 15 min prior induction, read-out: CFA(1) IC50) was greater than 10 µM. Moreover, the “% inhibition at 10 μM” value on 5-LO [4] (10 μM) was 91 ± 1%. Moreover, at 5-LO [4] (read-out: CFA(1) IC50), the half-inhibitory concentration (IC50) is 1.6 µM. For the same molecule, the “% inhibition at 10 μM” value on cPLA2 (10 μM) is given as 26 ± 8%. Also, the IC50 on cPLA2 (read-out: CFA(1) IC50) is greater than 10 µM. The “% inhibition at 10 μM” value on 5-LO [5] (10 μM) is 88 ± 3%. For the same molecule, the half-maximal inhibitory concentration (IC50) on 5-LO [5] (read-out: CFA(1) IC50) was 0.9 µM. In the data set with PGE2, the “Suppression of PGE2” value is on record as “suppressed PGE2”. Further, the “% inhibition at 10 μM” value at mPGES-1 (mPGES-1, cell-free, 10 μM) was 90 ± 1%. Also, the half-maximal inhibitory concentration (IC50) at mPGES-1 (mPGES-1, cell-free, read-out: CFA(1) IC50) is 1.8 µM. The “Inhibition of mPGES-1” value on mPGES-1 (result in words) is given as “directly inhibited mPGES-1”. Moreover, the “Effect on cell viability” value in data set [6] is given as “no effect”. In [6] (listed as cannflavin A), the “Effect on cell viability” value was “no deleterious effects on human cell viability”. Also, the Cytotoxicity result in data set [6] (result in words) is given as “no evidence of cytotoxicity”. The “% inhibition at 10 μM” value at COX-2 [7] (10 μM) is listed as 56 ± 8%. Further, the half-inhibitory concentration (IC50) at COX-2 [7] (read-out: CFA(1) IC50) is 8.8 µM. In the data set on COX-1 [8] (COX-1, cell-free, 10 μM), the “% inhibition at 10 μM” value was 36 ± 2%. The 50% inhibitory concentration (IC50) with COX-1 [8] (COX-1, cell-free, read-out: CFA(1) IC50) was greater than 10 µM. Further, the “Inhibition of COX-1” value in the data set with COX-1 [8] (result in words) was “did not significantly inhibit COX-1”.

As to `COc1ccc2c(c1)c(CC(=O)O)c(C)n2C(=O)c1ccc(Cl)cc1` [Indomethacin, reference compound], in the data set with COX-1 [8] (COX-1, cell-free, 20 μM), the “Reference control, % inhibition at indic. conc.” value is on record as “Indomethacin (20 μM), 81 ± 8%”.

Turning to `CC(c1cc2ccccc2s1)N(O)C(N)=O` (stereo not shown) [Zileuton, reference compound], on 5-LO [5] (3 μM), the “Reference control, % inhibition at indic. conc.” value is listed as “Zileuton (3 μM), 80 ± 4%”.

On to `O=C(/C=C/c1ccc(O)c(O)c1)NCCc1ccc(O)cc1` [caffeoyltyramine], for which, in data set [9], the “Antioxidant activity against DPPH radicals” value was “demonstrated antioxidant activity against DPPH radicals”. The “Inhibition of human LDL oxidation” value in data set [10] is recorded as “prominent inhibition of human LDL oxidation”.

Turning to `O=C(NCCc1ccc(O)cc1)C1=Cc2cc(O)c(O)cc2[C@H](c2ccc(O)c(O)c2)[C@H]1C(=O)NCCc1ccc(O)cc1` [cannabisin B], the “Antioxidant activity against DPPH radicals” value in [9] is reported as “demonstrated antioxidant activity against DPPH radicals”. Besides, in data set [10], the “Inhibition of human LDL oxidation” value is given as “prominent inhibition of human LDL oxidation”. Also, the “Antiproliferative effects in HepG2 cells” value in data set [11] was “produced antiproliferative effects”.
